Like-named read-outs stand apart in the source and are kept apart here.
Columns and labels:
[1] = tested on: FADD-deficient Jurkat T cells treated with TNF-α; experiment: Inhibition of necroptosis (CICD) in FADD-deficient Jurkat T cells treated with TNF-α, ATP-based viability; type: cell-based, human; settings: for antinecroptotic (anti-CICD) activity, in words: FADD-deficient Jurkat cells, TNFα
[2] = Homo sapiens, Jurkat, 24 h, read-out: EC50 (μM) for inhibition of necroptosis
[3] = 10 ng/mL human TNF-α, 24 hours, ATP-based viability, EC50 ± SD from at least two independent experiments, read-out: EC50 (μM) for inhibition of necroptosis

| Compound | EC50 [1, 2] | antinecroptotic (anti-CICD) activity, in words [1] | other results |
| --- | --- | --- | --- |
| COc1ccc([C@H]2[C@H]3C[C@H](N)c4ccc(OC)cc4C3=NN2C(C)=O)cc1 (relative stereo) [Compound 145, (3R,3aR,5S)-rel-2-acetyl-5-amino-3,3a,4,5-tetrahydro-3-(4-methoxyphenyl)-8-methoxy-2H-benz[g]indazole] | 1.2 ± 0.38 µM | – | – |
| COc1ccc([C@H]2[C@H]3C[C@H](N(C)C)c4ccc(OC)cc4C3=NN2C(C)=O)cc1 (relative stereo) [Compound 146, (3R,3aR,5S)-rel-2-acetyl-5-(N,N-dimethylamino)-3,3a,4,5-tetrahydro-3-(4-methoxyphenyl)-8-methoxy-2H-benz[g]indazole] | 5.1 ± 2.2 µM | – | – |
| COc1ccc([C@H]2[C@H]3CCc4ccc(OC)cc4C3=NN2C=O)cc1 (relative stereo) [Compound 147, (3R,3aR)-rel-2-formyl-3,3a,4,5-tetrahydro-3-(4-methoxyphenyl)-8-methoxy-2H-benz[g]indazole] | 0.92 ± 0.091 µM | – | – |
| COc1ccc([C@H]2[C@H]3CCc4ccc(OC)cc4C3=NN2C(=O)COC(C)=O)cc1 (relative stereo) [Compound 150, (3R,3aR)-rel-2-acetoxyacetyl-3,3a,4,5-tetrahydro-3-(4-methoxyphenyl)-8-methoxy-2H-benz[g]indazole] | – | – | EC50 [1, 3]: 3.1 ± 0.17 µM |
| COc1ccc([C@H]2[C@H]3CCc4ccc(OC)cc4C3=NN2C(N)=S)cc1 (relative stereo) [Compound 152, (3R,3aR)-rel-2-carbothioamide-3,3a,4,5-tetrahydro-3-(4-methoxyphenyl)-8-methoxy-2H-benz[g]indazole] | – | – | EC50 [1, 3]: 8.8 ± 3 µM |
| COc1ccc([C@H]2[C@H]3CCc4ccc(OC)cc4C3=NN2C(N)=O)cc1 (relative stereo) [Compound 153, (3R,3aR)-rel-2-carboxamide-3,3a,4,5-tetrahydro-3-(4-methoxyphenyl)-8-methoxy-2H-benz[g]indazole] | – | – | EC50 [1, 3]: 4.3 ± 2.9 µM |
| CNC(=S)N1N=C2c3cc(OC)ccc3CC[C@@H]2[C@@H]1c1ccc(OC)cc1 (relative stereo) [Compound 154, (3R,3aR)-rel-2-carbothioamide-3,3a,4,5-tetrahydro-3-(4-methoxyphenyl)-8-methoxy-N-methyl-2H-benz[g]indazole] | – | – | EC50 [1, 3]: 7.9 ± 2 µM |
| COc1ccc([C@H]2[C@H]3CCc4ccc(OC)cc4C3=NN2C(=N)N)cc1 (relative stereo) [Compound 157, (3R,3aR)-rel-2-carboxamidine-3,3a,4,5-tetrahydro-3-(4-methoxyphenyl)-8-methoxy-2H-benz[g]indazole] | – | – | EC50 [1, 3]: > 100 µM |
| COCC(=O)N1N=C2c3cc(OC)ccc3CC[C@@H]2[C@@H]1c1ccc(OC)cc1 (relative stereo) [Compound 158, (3R,3aR)-rel-2-methoxyacetyl-3,3a,4,5-tetrahydro-3-(4-methoxyphenyl)-8-methoxy-2H-benz[g]indazole] | – | – | EC50 [1, 3]: 0.44 ± 0.24 µM |
| COc1ccc2c(c1)CC[C@@H]1C2=NN(C(C)=O)[C@H]1c1ccc(F)cc1 (relative stereo) [Compound 162, (3R,3aS)-rel-2-acetyl-3,3a,4,5-tetrahydro-3-(4-fluorophenyl)-7-methoxy-2H-benz[g]indazole] | > 100 µM | – | – |
| COc1ccc2c(c1)CC[C@H]1C2=NN(C(C)=O)[C@H]1c1ccc(F)cc1 (relative stereo) [Compound 163, (3R,3aR)-rel-2-acetyl-3,3a,4,5-tetrahydro-3-(4-fluorophenyl)-7-methoxy-2H-benz[g]indazole] | > 100 µM | loss of activity | – |
| COc1ccc([C@H]2[C@@H]3CCc4ccc([N+](=O)[O-])cc4C3=NN2C(C)=O)cc1 (relative stereo) [Compound 168, (3R,3aS)-rel-2-acetyl-3,3a,4,5-tetrahydro-3-(4-methoxyphenyl)-8-nitro-2H-benz[g]indazole] | > 100 µM | – | – |
| COc1ccc([C@H]2[C@H]3CCc4ccc([N+](=O)[O-])cc4C3=NN2C(C)=O)cc1 (relative stereo) [Compound 169, (3R,3aR)-rel-2-acetyl-3,3a,4,5-tetrahydro-3-(4-methoxyphenyl)-8-nitro-2H-benz[g]indazole] | 3.5 ± 1.5 µM | diminished inhibitory activity | – |
| COc1ccc([C@H]2[C@@H]3CCc4ccc(F)cc4C3=NN2C(C)=O)cc1 (relative stereo) [Compound 170, (3R,3aS)-rel-2-acetyl-3,3a,4,5-tetrahydro-3-(4-methoxyphenyl)-8-fluoro-2H-benz[g]indazole] | 2.7 ± 0.82 µM | – | – |
| COc1ccc([C@H]2[C@H]3CCc4ccc(F)cc4C3=NN2C(C)=O)cc1 (relative stereo) [Compound 171, (3R,3aR)-rel-2-acetyl-3,3a,4,5-tetrahydro-3-(4-methoxyphenyl)-8-fluoro-2H-benz[g]indazole] | 0.28 ± 0.032 µM | tolerated | – |
| COc1ccc2c(c1)C1=NN(C(C)=O)[C@@H](c3ccc(O[N+](=O)[O-])cc3)[C@H]1CC2 (relative stereo) [Compound 172, (3R,3aR)-rel-2-acetyl-3,3a,4,5-tetrahydro-3-(4-nitroxyphenyl)-8-methoxy-2H-benz[g]indazole] | 1.8 ± 0.38 µM | – | – |

| Compound | EC50 [1, 2] | antinecroptotic (anti-CICD) activity, in words [1] | other results |
| --- | --- | --- | --- |
| COc1ccc([C@H]2[C@H]3CCc4c(OC)cccc4C3=NN2C(C)=O)cc1 (relative stereo) [Compound 173, (3R,3aR)-rel-2-acetyl-3,3a,4,5-tetrahydro-3-(4-methoxyphenyl)-6-methoxy-2H-benz[g]indazole] | > 100 µM | loss of activity | – |
| COc1ccc2c(c1)C1=NN(C(C)=O)[C@@H](c3ccc(OCc4ccccc4)cc3)[C@H]1CC2 (relative stereo) [Compound 174, (3R,3aR)-rel-2-acetyl-3,3a,4,5-tetrahydro-3-(4-benzyloxyphenyl)-8-methoxy-2H-benz[g]indazole] | > 100 µM | detrimental to activity to varying degrees | – |
| COc1ccc2c(c1)C1=NN(C(C)=O)[C@@H](c3ccc(O)cc3)[C@H]1CC2 (relative stereo) [Compound 175, (3R,3aR)-rel-2-acetyl-3,3a,4,5-tetrahydro-3-(4-hydroxyphenyl)-8-methoxy-2H-benz[g]indazole] | 5.9 ± 1.4 µM | detrimental to activity to varying degrees | – |
| CC(=O)N1N=C2c3cc(O)ccc3CC[C@@H]2[C@@H]1c1ccc(O)cc1 (relative stereo) [Compound 176, (3R,3aR)-rel-2-acetyl-3,3a,4,5-tetrahydro-3-(4-hydroxyphenyl)-8-hydroxy-2H-benz[g]indazole] | > 100 µM | – | – |
| COc1ccc([C@H]2[C@H]3CCc4cccc(OC)c4C3=NN2C(C)=O)cc1 (relative stereo) [Compound 180, (3R,3aR)-rel-2-acetyl-3,3a,4,5-tetrahydro-3-(4-methoxyphenyl)-9-methoxy-2H-benz[g]indazole] | > 50 µM | loss of activity | – |
| COc1ccc([C@H]2[C@H]3CCc4ccc(OCc5ccccc5)cc4C3=NN2C(C)=O)cc1 (relative stereo) [Compound 181, (3R,3aR)-rel-2-acetyl-3,3a,4,5-tetrahydro-3-(4-methoxyphenyl)-8-benzyloxy-2H-benz[g]indazole] | 5 ± 0.7 µM | diminished activity | – |
| COc1ccc2c(c1)C1=NN(C(C)=O)[C@@H](c3ccc(SC)cc3)[C@H]1CC2 (relative stereo) [Compound 182, (3R,3aR)-rel-2-acetyl-3,3a,4,5-tetrahydro-3-(4-thiomethoxyphenyl)-8-methoxy-2H-benz[g]indazole] | – | detrimental to activity to varying degrees | EC50 [1, 3]: 1.1 ± 0.69 µM |
| COc1ccc([C@H]2[C@H]3CCc4ccc(OCCN5CCOCC5)cc4C3=NN2C(C)=O)cc1 (relative stereo) [Compound 183, (3R,3aR)-rel-2-acetyl-3,3a,4,5-tetrahydro-3-(4-methoxyphenyl)-8-(4-morpholino)ethoxy-2H-benz[g]indazole] | – | diminished activity | EC50 [1, 3]: > 50 µM |
| COc1ccc([C@H]2[C@@H]3CCc4ccc(OC)cc4C3=NN2C=O)cc1 (relative stereo) [Compound 195, (3R,3aS)-rel-2-formyl-3,3a,4,5-tetrahydro-3-(4-methoxyphenyl)-8-methoxy-2H-benz[g] indazole] | – | – | melting point: 166 to 168 °C |
| COc1cc2c(cc1OC)C1=NN(C(C)=O)[C@@H](c3ccc(F)cc3)[C@@H]1CC2 (relative stereo) [Compound 198, (3R,3aS)-rel-2-acetyl-3,3a,4,5-tetrahydro-3-(4-fluorophenyl)-7,8-dimethoxy-2H-benz[g]indazole] | – | – | melting point: 231 to 233 °C |
| CC(=O)N1N=C2c3ccccc3CC[C@H]2[C@@H]1c1ccc(F)cc1 (relative stereo) [Compound 199, (3R,3aS)-rel-2-acetyl-3,3a,4,5-tetrahydro-3-(4-fluorophenyl)-2H-benz[g]indazole] | – | – | melting point: 168 to 171 °C |
| COc1ccc2c(c1)C1=NN(C(C)=O)[C@@H](c3cccc(F)c3)[C@@H]1CC2 (relative stereo) [Compound 200, (3R,3aS)-rel-2-acetyl-3,3a,4,5-tetrahydro-3-(3-fluorophenyl)-8-methoxy-2H-benz[g]indazole] | – | – | melting point: 196 to 199 °C |
| CCN1N=C2c3cc(OC)ccc3CC[C@@H]2[C@@H]1c1ccc(OC)cc1 (relative stereo) [Compound 213, (3R,3aR)-rel-2-ethyl-3,3a,4,5-tetrahydro-3-(4-methoxyphenyl)-8-methoxy-2H-benz[g]indazole] | > 100 µM | complete loss of necroptosis inhibitory activity | – |
| CN1C(=O)C(Cc2c[nH]c3c(Cl)cccc23)NC1=S (centres unmarked) [Compound 7-Cl-Nec-1] | – | – | EC50 ([1]; Jurkat FADD deficient cells treated with TNFα, read-out: EC50): 0.182 µM; increase in activity relative to Nec-1 ([1]; addition of a chlorine to the phenyl ring of Nec-1): approximately 2.7 fold |
| CN1C(=O)N[C@H](Cc2c[nH]c3c(Cl)cccc23)C1=O [R-7-Cl—O-Nec-1] | – | – | EC50 ([1]; Homo sapiens, Jurkat FADD deficient cells treated with TNFα, read-out: EC50): 0.047 µM; potency at inhibiting CICD relative to the (S)-enantiomer ([1]; enantiomers of 7-Cl—O-Nec-1): about 4 times |

Reference: patent US20130158024A1, “TRICYCLIC NECROSTATIN COMPOUNDS” (priority 2005, published 2013)
